According to patent publication US11737999B2, “Amino acid compositions and methods for the treatment of post-acute sequelae of COVID-19” (AXCELLA HEALTH INC., priority 2021, dated 2023):

What was measured:
MCP-1 = MCP-1 chemokine secretion in primary human hepatic stellate cells stimulated with TNFα; type: cell-based
Procollagen Iα1 = Procollagen Iα1 secretion (ELISA) in primary human hepatic stellate cells stimulated with TGFβ1; type: cell-based; conditions: for Procollagen lα1 Secretion (Fold Change of 1X), Mean: first donor; for Procollagen lα1 Secretion (Fold Change of 1X), Mean / Procollagen Iα1 Secretion, Mean: single amino acid
Col1a1 = Col1a1 gene expression (RT-qPCR) in primary human hepatic stellate cells stimulated with TGFβ1; type: cell-based; conditions: for Col1a1 Fold Expression Relative to Control, Mean: single amino acid
TNF-α = test: LPS-induced TNF-α secretion in primary human monocyte-derived macrophages; conditions: 0.15 ng/mL LPS
IL-6 [1] = test: LPS-induced IL-6 secretion in primary human monocyte-derived macrophages; conditions: LPS, baseline subtracted values
MCP1/CCL2 = MCP1/CCL2 secretion by ELISA in primary human hepatocytes with FFA + TNFα; type: cell-based
IL-6 [2] = test: IL-6 cytokine secretion in primary human hepatic stellate cells stimulated with TNFα; type: cell-based; conditions: for Fold Change IL-6 Secretion Normalized Per Cell: Valine 234 μM (plasma level, reference)
[3] = hepatic stellate cells, two donors
[4] = hepatic stellate cells, three donors
[5] = Donor 2, Conc. 234 μM (baseline)

CC(C)[C@H](N)C(=O)O [Valine, L-Valine]
Fold Change MCP1 Secretion Normalized Per Cell, Mean (MCP-1; donor 3, Conc. 234 μM): 1.0000 Fold Change | Fold Change MCP1 Secretion Normalized Per Cell (MCP-1; donor 4, Valine 234 μM (plasma level, reference)): 1.0000 fold change | MCP-1 secretion (summary in words) (MCP-1; [3]): no significant impact on MCP-1 secretion | Procollagen lα1 Secretion (Fold Change of 1X), Mean (Procollagen Iα1; 4684 μM): 1.1203 fold | Procollagen lα1 Secretion (Fold Change of 1X), Mean (Procollagen Iα1; 11710 μM): 1.2069 fold | Procollagen lα1 Secretion (Fold Change of 1X), Mean (Procollagen Iα1; 23420 μM): 1.2139 fold | procollagen Iα1 secretion (summary in words) (Procollagen Iα1; [4]): significantly increased procollagen Iα1 secretion in only one of two donors | Procollagen Iα1 Secretion, Mean (Procollagen Iα1; second donor, Conc. 234 μM (baseline)): 1.0000 Fold Change of 1× | Procollagen Iα1 Secretion, Mean (Procollagen Iα1; second donor, Conc. 4684 μM): 1.2865 Fold Change of 1× | Procollagen Iα1 Secretion, Mean (Procollagen Iα1; second donor, Conc. 11710 μM): 1.2877 Fold Change of 1× | Procollagen Iα1 Secretion, Mean (Procollagen Iα1; second donor, Conc. 23420 μM): 1.3068 Fold Change of 1× | Procollagen Iα1 Secretion, Mean (Procollagen Iα1; third donor, Conc. 234 μM (baseline)): 1.0000 Fold Change of 1× | Procollagen Iα1 Secretion, Mean (Procollagen Iα1; third donor, Conc. 4684 μM): 1.0428 Fold Change of 1× | Procollagen Iα1 Secretion, Mean (Procollagen Iα1; third donor, Conc. 11710 μM): 1.0498 Fold Change of 1× | Procollagen Iα1 Secretion, Mean (Procollagen Iα1; third donor, Conc. 23420 μM): 1.1139 Fold Change of 1× | Col1a1 Fold Expression Relative to Control, Mean (Col1a1; first donor, 234 μM (baseline)): 1.00 fold | Col1a1 Fold Expression Relative to Control, Mean (Col1a1; first donor, 23420 μM): 1.00 fold | Col1a1 gene expression (summary in words) (Col1a1; [4]): did not significantly change Col1a1 gene expression in any donor | Col1a1 Fold Expression Relative to Control, Mean (Col1a1; second donor (Table 27), 234 μM (baseline)): 1.00 fold | Col1a1 Fold Expression Relative to Control, Mean (Col1a1; second donor (Table 27), 4684 μM): 1.05 fold | Col1a1 Fold Expression Relative to Control, Mean (Col1a1; second donor (Table 27), 11710 μM): 0.98 fold | Col1a1 Fold Expression Relative to Control, Mean (Col1a1; second donor (Table 27), 23420 μM): 1.05 fold | Col1a1 Fold Expression Relative to Control, Mean (Col1a1; second donor (Table 29), 4684 μM): 1.22 fold | Col1a1 Fold Expression Relative to Control, Mean (Col1a1; second donor (Table 29), 23420 μM): 1.13 fold | TNF-α Measurements Mean (baseline subtracted) (TNF-α; Donor 1, Conc. 4684 μM): −40.37 | TNF-α Measurements Mean (baseline subtracted) (TNF-α; Donor 1, Conc. 11710 μM): −41.77 | TNF-α Measurements Mean (baseline subtracted) (TNF-α; Donor 1, Conc. 23420 μM): −14.98 | TNF-α Measurements Mean (baseline subtracted) (TNF-α; [5]): −4.7E−15 | TNF-α Measurements Mean (baseline subtracted) (TNF-α; Donor 2, Conc. 4684 μM): −0.00221 | TNF-α Measurements Mean (baseline subtracted) (TNF-α; Donor 2, Conc. 11710 μM): −0.835 | TNF-α Measurements Mean (baseline subtracted) (TNF-α; Donor 2, Conc. 23420 μM): −1.251 | TNF-α Measurements Mean (baseline subtracted) (TNF-α; Donor 3, Conc. 234 μM (baseline)): −2.4E−15 | TNF-α Measurements Mean (baseline subtracted) (TNF-α; Donor 3, Conc. 4684 μM): 0.126 | TNF-α Measurements Mean (baseline subtracted) (TNF-α; Donor 3, Conc. 11710 μM): −2.599 | TNF-α Measurements Mean (baseline subtracted) (TNF-α; Donor 3, Conc. 23420 μM): 3.688 | IL-6 Measurements, Mean (IL-6 [1]; Donor 1, Conc. 234 μM (baseline)): 0 | IL-6 Measurements, Mean (IL-6 [1]; [5]): −4.7E−15 | IL-6 Measurements, Mean (IL-6 [1]; Donor 2, Conc. 4684 μM): −4.528 | IL-6 Measurements, Mean (IL-6 [1]; Donor 2, Conc. 11710 μM): −1.196 | IL-6 Measurements, Mean (IL-6 [1]; Donor 2, Conc. 23420 μM): 4.396 | MCP1 expression relative to Control, Mean (MCP1/CCL2; Donor 1, Conc. 234 μM): −2.4E−15 | MCP1 expression relative to Control, Mean (MCP1/CCL2; Donor 1, Conc. 4684 μM): 23.6867 | MCP1 expression relative to Control, Mean (MCP1/CCL2; Donor 1, Conc. 11710 μM): 77.73 | MCP1 expression relative to Control, Mean (MCP1/CCL2; Donor 1, Conc. 23420 μM): 14.17 | MCP1 expression relative to Control, Mean (MCP1/CCL2; Donor 2, Conc. 234 μM): −1.4E−14 | MCP1 expression relative to Control, Mean (MCP1/CCL2; Donor 2, Conc. 4684 μM): 10.79 | MCP1 expression relative to Control, Mean (MCP1/CCL2; Donor 2, Conc. 11710 μM): 38.25 | MCP1 expression relative to Control, Mean (MCP1/CCL2; Donor 2, Conc. 23420 μM): −30.7921 | MCP1/CCL2 secretion (summary in words) (MCP1/CCL2; primary human hepatocytes, two healthy donors): did not have an effect on MCP1/CCL2 secretion | Fold Change IL-6 Secretion Normalized Per Cell (IL-6 [2]; donor 1): 1.0000 fold change | Fold Change IL-6 Secretion Normalized Per Cell (IL-6 [2]; donor 2): 1.0000 fold change | IL-6 secretion (summary in words) (IL-6 [2]; [3]): no significant effect on IL-6 secretion
